Laboratory results reported in PMC5742583, “A Functional Analysis on the Interspecies Interaction between Mouse LFA-1 and Human Intercellular Adhesion Molecule-1 at the Cell Level” (Frontiers in Immunology, 2017).
Where two headings read alike, the source gives them in different places.

Columns and labels:
[1] = test system: mouse B cells (ICAM-1/LFA-1 interaction); test: Homotypic B cell aggregation assay; format: cell-based; settings: overnight 37°C, clumping index 1-10
Description: To obtain these cells, mice were sacrificed by cervical dislocation, the spleens were removed, and splenocytes were isolated and resuspended in RPMI 10% FBS at a final concentration of 10^6 cells/ml. Cells were treated with 10 µg/ml PHA and 1 µg/ml ionomycin to activate LFA-1 and incubated at 37°C 5% CO2 overnight in flat bottom 96-well plates (10^5 cells) in the presence of peptides from LFA-1 and c-Myc (control) 250 µM, D1D2, D1D2Fc, and human IgG1 10 µg, EGTA 1 mM and lovastatin 100 µM. A qualitative aggregation assay was carried out as described ([36], [41]) with a slight modification. Briefly, positive control stimulated cell samples were arbitrarily assigned a clumping index of 10 and lovastatin samples an index of 1. Test samples were ranked from 1 to 10 based upon degree of clumping relative to stimulated and lovastatin-treated samples. Results were verified by a blind independent rating performed by a second observer.
Fresh mouse B cells were obtained from splenocytes and stimulated with PHA and ionomycin to induce homotypic adhesion. The results were quantified by establishing a clumping index that represents the degree of cell aggregation, which reflects the inhibition efficiency (Figure 3B). Cell aggregation was ranked by a clumping index from 1 to 10 based on the degree of aggregation in comparison with the stimulated cells (positive control, clumping index = 10).
Figure 3 Effect of human (ICAM-1) on the aggregation of mouse spleen cells. (A) Splenocytes isolated from mice were non treated (a) or activated with PHA (b–i) as described in Section “Experimental Procedures” and further incubated overnight with (b) medium; (c) IgG1; (d) c-Myc peptide; (e) EGTA; (f) lovastatin; (g) D1D2; (h) D1D2Fc; (i) mouse LFA-1 peptide CD11a235–259. Images were taken with an optical microscope (original magnification, 10×). Representative images from two independent experiments with similar results are shown. (B) The graph represents the rate of agglutination depending on the inhibitory effect on ICAM-1/LFA-1 interaction. Cells stimulated with PHA and ionomycin, which served as a positive control, were arbitrarily assigned agglutination index 10, which represents a percentage of aggregation between 90 and 100%. Homotypic aggregation was classified from 1 to 10 depending on the degree of aggregation relative to cells stimulated. The result was verified by a second independent observer. Values are presented as mean ± SEM of two separate experiments performed by duplicate. Statistical analysis was performed using two-way analysis of variance with Bonferroni’s posttest comparing with c-Myc peptide control. *p < 0.05; ***p < 0.001.

[2] = test system: Mac-1; settings: ref [42], [43]; cited from earlier work
From the text: (§1) In contrast, cell aggregates were clearly visible in cultures after stimulation (Figure 3A, b). […] Macrophage phenotype was confirmed by testing surface antigens by flow cytometry. Monocyte-derived macrophages expressed higher levels of HLA-DR and CD14 than undifferentiated monocytes ([51]). In addition, expression of CD54 (ICAM-1) was diminished in comparison with freshly isolated monocytes (Figure 6B). […] As shown ...

[3] = test system: VLA-4; settings: ref [42], [43]; cited from earlier work
From the text: as §1

[4] = test system: ICAM-1/LFA-1 interaction; settings: cited from earlier work
Description: Human and mouse LFA-1-derived peptides (human: CD11a237–261; mouse: CD11a235–259) were purchased from GenScript (Piscataway, USA) without any modification. […] Besides, incubation cells with a mouse antiCD1 ...

[5] = test system: K562 cells killed by human NK cells (ICAM-1/LFA-1); test: NK cell-mediated cytotoxicity on K562; format: cell-based; settings: peptide 250 µM, preincubation 45 min 37°C; effector:target 3:1, 4 h; annexin-V/7-AAD by FACS; vs c-Myc control; two experiments by duplicate
Description: The effect of human and mouse peptides derived from LFA-1 on ICAM-1/LFA-1 dependent cell–cell contact was analyzed by performing a cell cytotoxicity assay using human primary NK cells and the NK cell sensitive human leukemia K562. Primary activated human NK cells were generated by culturing PBMCs with mitomycin C inactivated R69 cells for 5 days and enriched by MACS using anti-CD56 antibodies as previously described ([39]). Cell cytotoxicity induced by NK cells on K562 was analyzed by flow cytometry as previously described ([39]). Briefly, K562 cells were preincubated with medium alone, in the presence of 250 µM of human and mouse peptides from LFA-1 or D1D2 (15 µg) for 45 min at 37°C. Then, NK cells were added at 3:1 effector:target cell ratio and incubated for 4 h at 37°C, 5% CO2. Subsequently, phosphatidylserine exposure and 7-AAD uptake were analyzed by FACS using the annexin-V/7-AAD kit from Immunostep. As a control, the cells were incubated alone with the inhibitors to evaluate their possible toxicity, which was not significant in any case.
Figure 4 Inhibition of natural killer (NK) cell-mediated cytotoxicity by human intercellular adhesion molecule-1. […] Cell death was analyzed by measuring translocation of PS by flow cytometry in the negative population for CFSE as described in experimental procedures. […]

[6] = target: T1, D1D2Fc (Homo sapiens, UniProt P05362); settings: peptide derived from human LFA-1, observed previously, ref [34], cited from earlier work
T1 construct: The synthetic first two domains of ICAM-1 alone (D1D2) or linked with human IgG1 Fc region (D1D2Fc) were expressed in Escherichia coli; made in house; host or cells: Escherichia coli
From the text: In a previous work, we have shown that purified human recombinant ICAM-1 was able to interact with peptides derived from human LFA-1 ([34]). […] The complex formation was net exothermic as would be expected for a reaction in which specific intermolecular interactions are established. Besides, if there were no interaction, there would not be any signal. This value was obtained by fitting to the binding isotherm a 1:n interaction model, which assumes a single type of binding sites.

[7] = target: human ICAM-1 first two domains linked with human IgG1 Fc region (D1D2Fc) (human); test: ITC; 150 µM peptide injected (28 injections of 10 µl) into 12 µM D1D2Fc in the cell, PBS, 25°C, VP-ITC; fitted with a 1:n interaction model with a single type of binding sites
[8] = test system: gp33-pulsed EL4 cells killed by mouse Tc cells (ICAM-1/LFA-1); test: CD8+ T cell-mediated cytotoxicity on EL4; format: cell-based; settings: ICAM-1 proteins, several (increasing) amounts, preincubation 45 min 37°C; effector:target 10:1, 4 h; annexin-V/7-AAD by FACS; three experiments by duplicate
[9] = test system: human macrophages; test: Human macrophage adhesion to plastic (MTT); format: cell-based; settings: human D1D2 and D1D2Fc, different concentrations, 37°C overnight, three experiments by duplicate
Description: (§2) Monocytes were isolated from human peripheral blood mononuclear cells (PBMCs), obtained from healthy donors (Blood and Tissue Bank of Aragon; approved by the CEICA, number: C.I.PI11/006) by density gradient centrifugation using Ficoll-Paque (GE healthcare). PBMCs were resuspended at a concentration of 2.5 × 10^6 cells/ml in RPMI medium supplemented with 1% heat-inactivated human AB serum (Sigma). Cells were cultured in a Petri dish for 2 h at 37°C 5% CO2. […]
(§3) Freshly isolated monocytes or differentiated macrophages were washed twice with PBS and incubated with trypsin (PAN Biotech) for 30 min at 37°C 5% CO2. […] Next day, every well was washed twice with PBS, complete RPMI medium was added and the number or adherent remaining cells was quantified by a MTT colorimetric test ([38]). […]
(§4) Figure 6 LFA-1 is involved in human macrophage adhesion. […] (B) Macrophage phenotype was analyzed by flow cytometry testing the expression of HL-DR, CD14, CD54, and CD11a. […] Subsequently, every well was washed twice with PBS to remove non-adherent cells and quantification of cell adhesion was carried out by MTT as described in Section “Experimental Procedures.” Values are presented as mean ± SEM of three independent experiments performed by duplicate. […]

[10] = test system: human monocytes; test: Human monocyte adhesion to plastic (MTT); format: cell-based; settings: human D1D2 and D1D2Fc, different concentrations, 37°C overnight, three experiments by duplicate
Description: as §2, §3, §4

T1 sequence (P05362 with tags, fused parts or gaps limits assumed): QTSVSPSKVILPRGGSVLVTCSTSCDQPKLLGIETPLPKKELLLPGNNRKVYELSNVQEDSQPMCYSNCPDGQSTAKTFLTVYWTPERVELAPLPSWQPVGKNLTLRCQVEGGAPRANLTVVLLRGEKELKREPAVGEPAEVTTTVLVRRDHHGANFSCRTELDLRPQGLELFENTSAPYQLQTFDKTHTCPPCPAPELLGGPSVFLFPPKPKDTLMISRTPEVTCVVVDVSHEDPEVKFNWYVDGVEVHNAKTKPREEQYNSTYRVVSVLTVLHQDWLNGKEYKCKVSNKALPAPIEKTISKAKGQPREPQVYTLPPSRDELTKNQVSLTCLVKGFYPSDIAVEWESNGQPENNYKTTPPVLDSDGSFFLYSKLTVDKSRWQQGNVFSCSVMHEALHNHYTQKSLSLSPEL

Molecule: O=C(O)CN(CCOCCOCCN(CC(=O)O)CC(=O)O)CC(=O)O [EGTA, reference compound]
- inhibition of B cell aggregation ([1]; EGTA 1 mM, splenocytes activated with PHA and ionomycin): inhibit completely the aggregation
- effect on Mac-1 [2]: without affecting
- effect on VLA-4 [3]: without affecting
- specific block of ICAM-1/LFA-1 interaction ([4]; ref [42], [43]): specifically block ICAM-1/LFA-1 interaction

Molecule: ITDGEATDSGNIDAAKDIIRYIIGI [CD11a237–261, human LFA-1-derived peptide, purchased from GenScript without any modification]
- ability to block ICAM-1/LFA-1 interaction ([4]; ref [36]): ability to block ICAM-1/LFA-1 interaction
- inhibition of NK cell-mediated cell death of K562 [5]: blocked NK cell-mediated cell death
- affinity for human ICAM-1 (D1D2Fc), in words [6]: similar
- affinity for human ICAM-1 (D1D2Fc), in words ([6]; listed as peptide of human LFA-1): highest affinity

Molecule: ITDGEASDKGNISAAHDITRYIIGI [mouse LFA-1-derived peptide CD11a(235-259)]
- Kd [7]: 0.07 µM

B1: Human ICAM-1: human ICAM-1 (D1D2Fc and D1D2) in this paper's tests; purified human ICAM-1 in ref [29] (protein, UniProt P05362 28-532, looked up)
Intercellular adhesion …: QTSVSPSKVILPRGGSVLVTCSTSCDQPKLLGIETPLPKKELLLPGNNRKVYELSNVQEDSQPMCYSNCPDGQSTAKTFLTVYWTPERVELAPLPSWQPVGKNLTLRCQVEGGAPRANLTVVLLRGEKELKREPAVGEPAEVTTTVLVRRDHHGANFSCRTELDLRPQGLELFENTSAPYQLQTFVLPATPPQLVSPRVLEVDTQGTVVCSLDGLFPVSEAQVHLALGDQRLNPTVTYGNDSFSAKASVSVTAEDEGTQRLTCAVILGNQSQETLQTVTIYSFPAPNVILTKPEVSEGTEVTVKCEAHPRAKVTLNGVPAQPLGPRAQLLLKATPEDNGRSFSCSATLEVAGQLIHKNQTRELRVLYGPRLDERDCPGNWTWPENSQQTPMCQAWGNPLPELKCLKDGTFPLPIGESVTVTRDLEGTYLCRARSTQGEVTRKVTVNVLSPRYEIVIITVVAAAVIMGTAGLSTYLYNRQRKIKKYRLQQAQKGTPMKPNTQATPP
- inhibition of B cell aggregation ([1]; protein 10 µg, splenocytes activated with PHA 10 µg/ml and ionomycin 1 µg/ml, two experiments by duplicate): significantly inhibited adhesion
- inhibition of Tc cell-mediated cell death of EL4 [8]: completely blocked cell death
- inhibition of adhesion of human macrophages [9]: completely inhibited
- inhibition of adhesion of human monocytes [10]: completely inhibited
